# Test results from patent US9227995B2, “Peptides” (DRUG DISCOVERY LABORATORY AS, priority 2010, dated 2016).
# Experiment: aqueous solubility of the peptide
# Type: physicochemical
# Details: water; stated as significantly higher compared to acyclic 21
compound,measurement,value
"COC(=O)C(C)(C)NC(=O)[C@@H]1COCc2cn(nn2)CCC[C@H](NC(=O)C(C)(C)NC(=O)C(C)(C)NC(=O)C(C)(C)NC(=O)OC(C)(C)C)C(=O)NC(C)(C)C(=O)NC(C)(C)C(=O)N1 [compound 23, Methyl 2-methyl-2-((5S,14S)-8,8,11,11-tetramethyl-5-(2,2,6,6,9,9,12,12-octamethyl-4,7,10-trioxo-3-oxa-5,8,11-triazamidecanamido)-6,9,12-trioxo-16-oxa-1,7,10,13,19,20-hexaazabicyclo[16.2.1]henicosa-18 (21),19-dienecarboxamido)propanoate]",solubility,> 1000 µM
